Assay results: patent publication US11535630B2, “Apelin receptor (APJ) agonists and uses thereof” (Research Triangle Institute, priority 2015, dated 2022)
Structures can show the parent of a compound that is named as a salt. Where two headings read alike, the source gives them in different places.

Target: T1, apelin receptor (APJ) (Homo sapiens, UniProt P35414)
T1 sequence (P35414 1-380): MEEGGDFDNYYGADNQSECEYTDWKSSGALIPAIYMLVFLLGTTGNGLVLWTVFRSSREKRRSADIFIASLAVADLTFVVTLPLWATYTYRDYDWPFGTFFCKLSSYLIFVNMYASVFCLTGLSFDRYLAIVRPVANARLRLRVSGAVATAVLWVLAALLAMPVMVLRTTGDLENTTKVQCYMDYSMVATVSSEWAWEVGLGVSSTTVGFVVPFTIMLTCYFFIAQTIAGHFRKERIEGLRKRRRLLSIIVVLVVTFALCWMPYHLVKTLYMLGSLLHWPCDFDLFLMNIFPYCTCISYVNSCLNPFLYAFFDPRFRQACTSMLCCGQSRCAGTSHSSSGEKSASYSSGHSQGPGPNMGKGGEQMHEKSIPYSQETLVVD
Experiment: In vitro apelin agonist activity (methods of Giddings et al., Apelin-13 as positive control)
Format: cell-based
Conditions: in vitro apelin agonist activity, methods of Giddings et al., Apelin-13 as positive control
Excerpt: Characterization of the Apelin Agonist Activity of the Compounds
1:39-47, the contents of which are hereby incorporated by reference in its entirety. Using the methods described in Giddings et al. and Apelin-13 as a positive control.

| SMILES | EC50 (read-out: EC50 (nM) Ave) [nM] | EC50 (EC50 (nM) Ave) [nM] |
| --- | --- | --- |
| COc1cccc(OC)c1-c1cc(C(=O)N[C@@H](CCc2ccccc2)C(=O)NCc2nnn[nH]2)nn1C1CCCC1 [compound 387, (2S)-2-{[1-cyclopentyl-5-(2,6-dimethoxyphenyl)-1H-pyrazol-3-yl]formamido}-4-phenyl-N-(1H-1,2,3,4-tetrazol-5-ylmethyl)butanamide] | 8720 |  |
| COc1cccc(F)c1-c1cc(C(=O)N[C@@H](CCN2CCCCC2)CC(=O)NC2CCC2)nn1C1CCCC1 [compound 372, (3S)-N-cyclobutyl-3-{[1-cyclopentyl-5-(2-fluoro-6-methoxyphenyl)-1H-pyrazol-3-yl]formamido}-5-(piperidin-1-yl)pentanamide] | 90 |  |
| CCc1ccccc1-c1cc(C(=O)N[C@@H](CCN2CCC(F)(F)CC2)CC(=O)Nc2nccs2)nn1C1CCCC1 [compound 409, (3S)-3-{[1-cyclopentyl-5-(2-ethylphenyl)-1H-pyrazol-3-yl]formamido}-5-(4,4-difluoropiperidin-1-yl)-N-(1,3-thiazol-2-yl)pentanamide] | 12.5 |  |
| COc1cccc(OC)c1-c1cc(C(=O)N[C@@H](CCN2C3CCC2CC3)CC(=O)OC(C)(C)C)nn1C1CCCC1 [compound 320, tert-butyl (3S)-5-{7-azabicyclo[2.2.]heptan-7-yl}-3-{[1-cyclopentyl-5-(2,6-dimethoxyphenyl)-1H-pyrazol-3-yl]formamido}pentanoate] | > 10000 |  |
| COc1cccc(OC)c1-c1cc(C(=O)N[C@@H](CCN2CCCCC2)Cc2nnnn2C)nn1C1CCCC1 [compound 445, 1-cyclopentyl-5-(2,6-dimethoxyphenyl)-N-[(2S)-1-(1-methyl-1H-1,2,3,4-tetrazol-5-yl)-4-(piperidin-1-yl)butan-2-yl)-1H-pyrazole-3-carboxamide] | 2830 |  |
| O=C(C[C@H](CCN1CCCC(F)(F)C1)NC(=O)c1cc(-c2ccccc2C(F)(F)F)n(C2CCCC2)n1)Nc1ncco1 [compound 427, (3S)-3-({1-cyclopentyl-5-[2-(trifluoromethyl)phenyl]-1H-pyrazol-3-yl}formamido)-5-(3,3-difluoropiperidin-1-yl)-N-(1,3-oxazol-2-yl)pentanamide] | 8.5 |  |
| COc1cccc(OC)c1-c1cc(C(=O)N[C@@H](CCN2CCCCC2)CC(=O)NC2CCC2)nn1C1CCCCC1C (stereo partly drawn) [compound 356, (3S)-N-cyclobutyl-3-{[5-(2,6-dimethoxyphenyl)-1-(2-methylcyclohexyl)-1H-pyrazol-3-yl]formamido}-5-(piperidin-1-yl)pentanamide] | > 10000 |  |
| CCc1ccccc1-c1cc(C(=O)N[C@@H](CCN2CCCCC2)CC(=O)O)nn1C1CCCC1 [compound 403, (3S)-3-{[1-cyclopentyl-5-(2-ethylphenyl)-1H-pyrazol-3-yl]formamido}-5-(piperidin-1-yl)pentanoic acid hydrochloride] | 42 |  |
| COc1cccc(OC)c1-c1cc(C(=O)N[C@@H](CC2CCCC2)C(=O)O)nn1C1CCCC1 [compound 393, (2S)-3-cyclopentyl-2-{[1-cyclopentyl-5-(2,6-dimethoxyphenyl)-1H-pyrazol-3-yl]formamido}propanoic acid] | 424 |  |
| COc1cccc(OC)c1-c1cc(C(=O)N[C@@H](CCCC2CCCCC2)CC(=O)O)nn1CC(C)C [compound 301, (3S)-6-cyclohexyl-3-{[5-(2,6-dimethoxyphenyl)-1-(2-methylpropyl)-1H-pyrazol-3-yl]formamido}hexanoic acid] | 2590 |  |
| O=C(C[C@H](CCN1CCCC(F)(F)C1)NC(=O)c1cc(-c2ccccc2C(F)(F)F)n(C2CCCC2)n1)Nc1nccs1 [compound 426, (3S)-3-({1-cyclopentyl-5-[2-(trifluoromethyl)phenyl]-1H-pyrazol-3-yl}formamido)-5-(3,3-difluoropiperidin-1-yl)-N-(1,3-thiazol-2-yl)pentanamide] | 10.6 |  |
| O=C(C[C@H](CN1CCC(F)(F)C1)NC(=O)c1cc(-c2ccccc2C(F)(F)F)n(C2CCCC2)n1)NC1CCC1 [compound 523, (3R)-N-cyclobutyl-3-({1-cyclopentyl-5-[2-(trifluoromethyl)phenyl]-1H-pyrazol-3-yl}formamido)-4-(3,3-difluoropyrrolidin-1-yl)butanamide] |  | 1210 |
| COc1cccc(OC)c1-c1cc(C(=O)N[C@@H](CCN2CCCCCC2)CC(=O)OC(C)(C)C)nn1C1CCCC1 [compound 319, tert-butyl (3S)-5-(azepan-1-yl)-3-{[1-cyclopentyl-5-(2,6-dimethoxyphenyl)-1H-pyrazol-3-yl]formamido}pentanoate] | 3510 |  |
| COc1cccc(OC)c1-c1cc(C(=O)N[C@H](CC(=O)O)Cc2ccccc2)nn1C1CCCC1 [compound 401, (3S)-3-{[1-cyclopentyl-5-(2,6-dimethoxyphenyl)-1H-pyrazol-3-yl]formamido}-4-phenylbutanoic acid] | > 10000 |  |

Continued, in another order:

| EC50 (read-out: EC50 (nM) Ave) [nM] | SMILES | EC50 (EC50 (nM) Ave) [nM] |
| --- | --- | --- |
| 1520 | O=C(O)C[C@H](CCC1CCCCC1)NC(=O)c1cc(-c2ccccc2C(F)(F)F)n(C2CCCC2)n1 [compound 484, (3S)-5-cyclohexyl-3-({1-cyclopentyl-5-[2-(trifluoromethyl)phenyl]-1H-pyrazol-3-yl}formamido)pentanoic acid] |  |
| 1570 | O=C(O)C[C@H](CCN1CCCC(F)(F)C1)NC(=O)c1cc(-c2ccc(Cl)cc2C(F)(F)F)n(C2CCCC2)n1 [compound 555, (3S)-3-({5-[4-chloro-2-(trifluoromethyl)phenyl]-1-cyclopentyl-1H-pyrazol-3-yl}formamido)-5-(3,3-difluoropiperidin-1-yl)pentanoic acid] |  |
| 79 | Cc1cnn(CC[C@@H](CC(=O)N(C)c2nccs2)NC(=O)c2cc(-c3ccccc3C(F)(F)F)n(C3CCCC3)n2)c1 [compound 500, (3S)-3-({1-cyclopentyl-5-[2-(trifluoromethyl)phenyl]-1H-pyrazol-3-yl}formamido)-N-methyl-5-(4-methyl-1H-pyrazol-1-yl)-N-(1,3-thiazol-2-yl)pentanamide] |  |
| 10.3 | CN(CC[C@@H](CC(=O)NC1CCC1)NC(=O)c1cc(-c2ccccc2C(F)(F)F)n(C2CCCC2)n1)C1CCCC1 [compound 490, (3S)-N-cyclobutyl-5-[cyc1opentyl(methyl)amino]-3-({1-cyclopentyl-5-[2(trifluoromethyl)phenyl]-1H-pyrazol-3-yl}formamido)pentanamide] |  |
| 1670 | O=C(O)C[C@H](CCN1CCCC(F)(F)C1)NC(=O)c1cc(-c2cccnc2Cl)n(C2CCCC2)n1 [compound 468] |  |
| 13 | CC(C(=O)O)[C@H](CCN1CC2C(C1)C2(F)F)NC(=O)c1cc(-c2ccccc2C(F)(F)F)n(C2CCCC2)n1 (stereo partly drawn) [compound 635, (2R,3S)-3-({1-cyclopentyl-5-[2-(trifluoromethyl)phenyl]-1H-pyrazol-3-yl}formamido)-5-{6,6-difluoro-3-azabicyclo[13.1.0]hexan-3-yl}-2-methylpentanoic acid] |  |
| 475 | O=C(O)C[C@H](CC(=O)N1CCCCC1)NC(=O)c1cc(-c2ccccc2C(F)(F)F)n(C2CCCC2)n1 [compound 508, (3S)-3-({1-cyclopentyl-5-[2-(trifluoromethyl)phenyl]-1H-pyrazol-3-yl}formamido)-5-oxo-5-(piperidin-1-yl)pentanoic acid] |  |
| > 10000 | O=C(O)C[C@H](CN1CCC(F)(F)C1)NC(=O)c1cc(-c2ccccc2C(F)(F)F)n(C2CCCC2)n1 [compound 518, (3R)-3-({1-cyclopentyl-5-[2-(trifluoromethyl)phenyl]-1H-pyrazol-3-yl}formamido)-4-(3,3-difluoropyrrolidin-1-yl)butanoic acid] |  |
